Laboratory results taken from EP4778531A1, “MUSCLE RELAXANT ANTAGONIST FOR REVERSAL FOR BENZYLISOQUINOLINE MUSCLE RELAXANT” (priority 2023, dated 2025).

Tests used:
[1] = test system: cisatracurium-induced guinea pig muscle relaxation model; assay: Antagonism of residual muscle relaxation after cisatracurium in anesthetized guinea pigs (TOF monitoring); type: in vivo, Hartley guinea pigs; details: positive control group, 0.0625 mg/kg i.v.
Procedure: (§1) Ninety (90) qualified Hartley guinea pigs, male, were used. Sixty (60) animals were randomly divided into 6 experimental groups based on body weight using a stratified random method: negative control group, positive control group, low-dose test group, medium-dose test group, high-dose test group, and combination group, with 10 animals per group (n=10). The remaining animals served as spares. The negative control group received 0.9% sodium chloride. The positive control group received 0.0625 mg/kg neostigmine methylsulfate (referred to as neostigmine). The low-dose test group received 10 mg/kg adamgammadex sodium. The medium-dose test group received 20 mg/kg adamgammadex sodium. The high-dose test group received 40 mg/kg adamgammadex sodium. The combination group received 10 mg/kg adamgammadex sodium and 0.03125 mg/kg neostigmine. The administration volume for all groups was 1 mL/kg.
(§2) Adaptive feeding was conducted after the quarantine period. On the day of the experiment, guinea pigs were weighed, administered atropine (0.1 mg/kg) intramuscularly, and then anesthetized with an intraperitoneal injection of anesthetic (pentobarbital sodium 10 mg/kg, urethane 1000 mg/kg). After fixation, the animals were intubated and connected to a small animal ventilator. Both external jugular veins and the right carotid artery were cannulated. The left jugular vein was used for cisatracurium infusion, the right jugular vein for injection of different test substances, and the carotid artery was connected to a multi-channel physiological signal acquisition and processing system for continuous monitoring of arterial blood pressure and heart rate. Electrode patches were subcutaneously placed behind the left femur and tibia of the guinea pig, and two stimulating electrodes of the neuromuscular monitor were fixed to the two electrode patches. The left hind paw was fixed on a custom-made platform. A sensor was fixed to the skin surface over the gastrocnemius muscle of the left hind limb, and a skin temperature probe was fixed to a flat area of skin. Continuous single-twitch stimulation was applied at 1 Hz. After the twitch height stabilized, the mode was switched to train-of-four stimulation (TOF mode, stimulus current 5 mA, frequency 2 Hz, pulse width 0.2 ms, interval between trains 15 s) for at least 5 min. Calibration was then performed using Calibration Mode 2, followed by TOF mode stimulation. After obtaining a stable stimulation response for at least 2 min, cisatracurium solution was infused intravenously using a dual-channel micro-infusion pump, and the start time of infusion was recorded. […] At this point, cisatracurium infusion was stopped. After stopping the infusion, neuromuscular function was allowed to recover spontaneously. When neuromuscular function reached moderate recovery, the test drug formulation was administered intravenously. Neuromuscular function was allowed to recover completely, and the administration time was recorded (Figure 1). Using the time of spontaneous recovery to moderate neuromuscular function (TOF50) as zero point, the times for recovery from TOF50 to TOF75, TOF75 to TOF90, and TOF50 to TOF90 were calculated for each animal (Table 1-2). Arterial blood pressure (systolic, diastolic, mean arterial pressure) and heart rate were recorded before cisatracurium infusion, at the time cisatracurium infusion was stopped, at the time of moderate neuromuscular recovery, and at the time of complete neuromuscular function recovery (Tables 3-7). Data were expressed as Mean ± SD. Statistical T-tests were performed using SPSS software to evaluate differences in blood pressure, heart rate, and residual neuromuscular blockade recovery times. P < 0.05 was considered statistically significant.

[2] = test system: cisatracurium-induced guinea pig muscle relaxation model; assay: Arterial blood pressure and heart rate in the cisatracurium muscle relaxation model; type: in vivo, Hartley guinea pigs
Procedure: as §1, §2

[3] = positive control group, 0.0625 mg/kg i.v.

With `CN(C)C(=O)Oc1cccc([N+](C)(C)C)c1` [Neostigmine, neostigmine methylsulfate] the “Residual Muscle Relaxation Recovery Time Ratios RtTOF50-75/0-50” value [1] was 0.09±0.07, the “Residual Muscle Relaxation Recovery Time Ratios RtTOF50-90/0-50” value [1] was 0.18±0.09 and the “Residual Muscle Relaxation Recovery Time Ratios RtTOF75-90/0-50” value [1] was 0.09±0.07. For the same compound, the “Residual Muscle Relaxation Recovery Time tTOF50-75” value [1] was 101 ± 71 s, the “Residual Muscle Relaxation Recovery Time tTOF50-90” value [1] was 188 ± 86 s and the “Residual Muscle Relaxation Recovery Time tTOF75-90” value [1] was 87 ± 68 s. For the same compound, the “Residual Muscle Relaxation Recovery Time tTOF0-50” value ([1]; spontaneous recovery before administration) was 1134 ± 281 s, the “Degree of tTOF50-90 shortening” value ([1]; vs negative control group) was 58.7% and the “effect on heart rate (in words)” value ([2]; 0.0625 mg/kg) was “significant side effect of lowering heart rate”. The heart rate decrease ([2]; 0.0625 mg/kg neostigmine, positive control group, summary statement) was “approximately 30%”, the “Heart rate Administration” value [2, 3] was 238+42 bmp and the “Heart rate Complete Recovery” value [2, 3] was 157±49 bmp. The “Heart rate Moderate Recovery” value [2, 3] was 181±54 bmp, the “Heart rate Muscle Relaxation End” value [2, 3] was 239+11 bmp and the “Heart rate Muscle Relaxation Start” value [2, 3] was 240+14 bmp. For the same compound, the “Mean Arterial Pressure mAP Administration” value [2, 3] was 68+12 mmHg, the “Mean Arterial Pressure mAP Complete Recovery” value [2, 3] was 67+15 mmHg and the “Mean Arterial Pressure mAP Moderate Recovery” value [2, 3] was 69+12 mmHg. For the same compound, the “Mean Arterial Pressure mAP Muscle Relaxation End” value [2, 3] was 63+8 mmHg, the “Mean Arterial Pressure mAP Muscle Relaxation Start” value [2, 3] was 62+11 mmHg and the “Mean Diastolic Pressure mDP Administration” value [2, 3] was 60+10 mmHg. For the same compound, the “Mean Diastolic Pressure mDP Complete Recovery” value [2, 3] was 58+15 mmHg, the “Mean Diastolic Pressure mDP Moderate Recovery” value [2, 3] was 61+12 mmHg and the “Mean Diastolic Pressure mDP Muscle Relaxation End” value [2, 3] was 57+6 mmHg. For the same compound, the “Mean Diastolic Pressure mDP Muscle Relaxation Start” value [2, 3] was 56±9 mmHg, the “Mean Pulse Pressure Administration” value [2, 3] was 17±8 mmHg and the “Mean Pulse Pressure Complete Recovery” value [2, 3] was 19+6 mmHg. For the same compound, the “Mean Pulse Pressure Moderate Recovery” value [2, 3] was 19±8 mmHg, the “Mean Pulse Pressure Muscle Relaxation End” value [2, 3] was 14±5 mmHg and the “Mean Pulse Pressure Muscle Relaxation Start” value [2, 3] was 15+4 mmHg. For the same compound, the “Mean Systolic Pressure mSP Administration” value [2, 3] was 76±15 mmHg, the “Mean Systolic Pressure mSP Complete Recovery” value [2, 3] was 78±13 mmHg and the “Mean Systolic Pressure mSP Moderate Recovery” value [2, 3] was 79±13 mmHg. The “Mean Systolic Pressure mSP Muscle Relaxation End” value [2, 3] was 71±10 mmHg, the “Mean Systolic Pressure mSP Muscle Relaxation Start” value [2, 3] was 71±12 mmHg and the “Degree of heart rate decrease at complete muscle relaxation recovery” value ([2]; positive control group, 0.0625 mg/kg i.v., vs heart rate at start of muscle relaxation) was 35%.
